Laboratory results taken from the RepoRT retention time repository (doi:10.1016/j.foodchem.2018.09.045).

Assay: RP, Thermo Scientific Syncronis C18, 100 × 2.1 mm, 1.7 µm, 0.3 mL/min, estimated dead time 0.73 min; A: water + 0.1% acetic acid; B: acetonitrile + 0.1% acetic acid; gradient (min/%B) 0/5 1/5 16/95
Conditions: stereoisomer not certain

Row | LC retention time [min] | SMILES
1 | 10.8 | COc1cc(O)c2c(=O)cc(-c3ccc(O)cc3)oc2c1
2 | 5.62 | O=C(O)Cc1ccc(O)cc1
3 | 8.24 | O=c1c(O)c(-c2ccc(O)c(O)c2)oc2cc(O)cc(O)c12
4 | 8.59 | O=C1CC(c2ccc(O)c(O)c2)Oc2cc(O)cc(O)c21 (stereo unspecified)
5 | 9.74 | O=C1c2c(O)cc(O)cc2OC(c2ccccc2)C1O (stereo unspecified)
6 | 11.8 | O=c1c(O)c(-c2ccccc2)oc2cc(O)cc(O)c12
7 | 5.63 | COc1cc(C(=O)O)ccc1O
8 | 6.68 | O=C(O)C=Cc1ccc(O)cc1
9 | 11.6 | O=c1cc(-c2ccccc2)oc2cc(O)cc(O)c12
10 | 5.48 | O=C(O)c1cc(O)ccc1O
11 | 9.94 | COc1cc(-c2cc(=O)c3c(O)cc(O)cc3o2)ccc1O
12 | 7.02 | COc1cc(C=CC(=O)O)cc(OC)c1O
13 | 7.03 | CC1OC(OC2C(Oc3cc(O)c4c(c3)OC(c3ccc(O)cc3)CC4=O)OC(CO)C(O)C2O)C(O)C(O)C1O (stereo unspecified)
14 | 7.04 | COc1cc(C=CC(=O)O)ccc1O
15 | 7.17 | CC1OC(Oc2c(-c3ccc(O)c(O)c3)oc3cc(O)cc(O)c3c2=O)C(O)C(O)C1O (stereo unspecified)
16 | 11.7 | O=C1CC(c2ccccc2)Oc2cc(O)cc(O)c21 (stereo unspecified)
17 | 5.26 | O=C(C=Cc1ccc(O)c(O)c1)OC1CC(O)(C(=O)O)CC(O)C1O (stereo unspecified)
18 | 6.44 | CC1OC(OCC2OC(Oc3c(-c4ccc(O)c(O)c4)oc4cc(O)cc(O)c4c3=O)C(O)C(O)C2O)C(O)C(O)C1O (stereo unspecified)
19 | 6.71 | O=c1c(OC2OC(CO)C(O)C(O)C2O)c(-c2ccc(O)c(O)c2)oc2cc(O)cc(O)c12 (stereo unspecified)
20 | 7.9 | COc1cc(C=CC=O)ccc1O
21 | 12.2 | COc1ccc(-c2cc(=O)c3c(O)cc(O)cc3o2)cc1
22 | 9.53 | O=c1c(-c2ccc(O)cc2)coc2cc(O)cc(O)c12
23 | 11.8 | COc1ccc(-c2oc3cc(O)cc(O)c3c(=O)c2O)cc1
24 | 5.41 | O=C(O)c1ccc(O)cc1
25 | 4.44 | O=C(O)c1ccc(O)c(O)c1
26 | 9.52 | O=c1cc(-c2ccc(O)cc2)oc2cc(O)cc(O)c12
27 | 8.69 | O=c1cc(-c2ccc(O)c(O)c2)oc2cc(O)cc(O)c12
28 | 9.87 | COc1cc(-c2oc3cc(O)cc(O)c3c(=O)c2O)ccc1O
29 | 9.44 | O=C1CC(c2ccc(O)cc2)Oc2cc(O)cc(O)c21 (stereo unspecified)
30 | 9.7 | O=c1c(O)c(-c2ccc(O)cc2)oc2cc(O)cc(O)c12

Row | SMILES | LC retention time [min]
31 | O=c1ccc2cc(OC3OC(CO)C(O)C(O)C3O)c(O)cc2o1 (stereo unspecified) | 4.91
